Series [1] deals with Monocotyledonous and dicotyledonous test plants. Kind of series: Herbicidal action, application pre-emergence (Example B1). The format is in vivo. On the set-up: key: 10=total damage to plant; 0=no damage to plant. Conditions: 1000 g/ha, scale 10=total damage to plant, 0=no damage to plant, evaluated after 9 or 13 days. As to the method:
Monocotyledonous and dicotyledonous test plants were sown in sterilised standard soil in seed trays each having 96 cells. After one day (pre-emergence) or after 8 to 9 days cultivation (post-emergence) under controlled conditions in a climatic chamber (cultivation at 17/23° C.; 13 hours light; 50-60% humidity; after application at 19/24° C.), the plants were treated with an aqueous spray solution of 1000 mg/l of the active ingredient used (including 10% DMSO as solvent). The plants were grown on in the climatic chamber until the test was evaluated (10=total damage to plant, 0=no damage to plant) after 9 or 13 days.

In the next series the test system is maize (Marista). Kind of series: Pre-emergent safening test on maize (Example E1). The format is in vivo. The following applies: Comp. 1.01 WP 25% AW/W alone, evaluated after 14 days. Here is the method:
The test plants were sown in seed trays under greenhouse conditions. A standard earth was used as the culture substrate. In a pre-emergent stage, the herbicides were applied both by themselves and in a mixture with safeners to the soil surface. The application was carried out with an aqueous suspension of the test substances, prepared from a 25% wettable powder (Example F3, b according to WO 97/34485) or from a suspension concentrate (Example F8 according to WO 97/34485), to achieve a field equivalent of 200 1/ha. The tests were evaluated after 14 days (100%=plants completely dead; 0%=no phytotoxic action on the plants).

The melting point is the temperature, or range, at which the solid turns liquid. In turn, `CC1(C)CC(S(=O)(Cc2c(F)cccc2F)=NC(=O)c2ccc(Cl)cc2)=NO1` (centres unmarked) [1.03] returned a melting point of 154 to 156 °C. For the same compound, in series [1], the “Herbicidal action on Agrostis (damage rating)” value (shortened to “Herbicidal action on Agrostis”) turned out to be 7, the “Herbicidal action on Digitaria (damage rating)” value (“Herbicidal action on Digitaria” below) was found to be 8, the “Herbicidal action on Poa (damage rating)” value turned out to be 10 and the “Herbicidal action on Setaria (damage rating)” value (shortened to “Herbicidal action on Setaria”) is 8.
`CC1(C)CC(S(=O)(Cc2c(F)cccc2F)=NC(=O)C(F)(F)F)=NO1` (centres unmarked) [1.04, 3-{2,6-difluoro-phenylmethane(N-trifluoromethyl-carbonyl)sulfoximinyl)-5,5-dimethyl-4,5-dihydroisoxazole] registered a melting point of 143 to 144 °C. Also, in series [1], the “Herbicidal action on Agrostis” value amounted to 10, the “Herbicidal action on Digitaria” value was 10, the “Herbicidal action on Poa (damage rating)” value was found to be 10 and the “Herbicidal action on Setaria” value is given as 10.
In the case of `CC1(C)CC(S(=O)(Cc2c(F)cccc2F)=NS(=O)(=O)C(F)(F)F)=NO1` (centres unmarked) [1.14, 3-{2,6-difluoro-phenylmethane(N-trifluoromethylsulphonyl)-sulfoximinyl)-5,5-dimethyl-4,5-dihydroisoxazole], the melting point came out at 108 °C. For the same compound, in series [1], the “Herbicidal action on Agrostis” value is 10, the “Herbicidal action on Digitaria” value was 7, the “Herbicidal action on Poa (damage rating)” value is recorded as 10 and the “Herbicidal action on Setaria” value is 0.
Regarding `CC1(C)CC(S(=N)(=O)Cc2cc(F)cc3c2OCOC3)=NO1` (centres unmarked) [1.48], in series [1], the “Herbicidal action on Agrostis” value is 0, the “Herbicidal action on Digitaria” value was 8, the “Herbicidal action on Poa (damage rating)” value turned out to be 0 and the “Herbicidal action on Setaria” value was found to be 8.
As to `Cn1nc(C(F)(F)F)c(CS(=N)(=O)C2=NOC(C)(C)C2)c1Cl` (centres unmarked) [2.01], in series [1], the “Herbicidal action on Agrostis” value was determined as 10, the “Herbicidal action on Digitaria” value was 10, the “Herbicidal action on Poa (damage rating)” value is reported as 10 and the “Herbicidal action on Setaria” value stood at 10.
`CC1(C)CC(S(=N)(=O)Cc2c(F)cccc2F)=NO1` (centres unmarked) [Comp. 1.01]: in series [1], the “Herbicidal action on Agrostis” value was 10, the “Herbicidal action on Digitaria” value is 10, the “Herbicidal action on Poa (damage rating)” value was determined as 10 and the “Herbicidal action on Setaria” value was 9. Further, the “phytotoxic action on maize (100%=plants completely dead; 0%=no phytotoxic action on the plants)” value in the series with maize (Marista) (200 g/ha) was determined as 67.5%. Further, the “phytotoxic action on maize (100%=plants completely dead; 0%=no phytotoxic action on the plants)” value with maize (Marista) (400 g/ha) was 62.5%.

For the origin of these results see patent publication US7465805B2, “Isoxazoline derivatives and their use as herbicides” (Syngenta Limited, priority 2004, dated 2008).
